One test has as its system Aedes aegypti. Kind of test: Arm-in-cage repellent/deterrent bioassay on exposed human forearm (modified WHO protocol), Aedes aegypti. The format is in vivo. As for the experimental part:
(§1) Candidate repellents and deterrents were bioassayed according to a modified protocol from the World Health Organization (1996). At least 1 hour prior to each bioassay, 75 host-seeking non blood-fed, nulliparous, 5- to 8-day-old female Aedes aegypti, Anopheles gambiae or Culex quinquefasciatus were placed into a wood-framed cage (26.5 cm on each side and 42.5 cm high) with a wooden floor, screened mesh sides and top, and a clear acrylic front fitted with a cotton stockinette sleeve (10 cm diameter). The test subject's arm was covered with an elbow-length polyethylene glove with an excised patch (16.6 cm long, 6 cm wide) to expose the ventral forearm of the test subject. Candidate deterrents were formulated in mineral (paraffin) oil and applied to the exposed forearm 5 min prior to inserting the arm into the cage. The inserted arm remained in the cage for 3 min every 30 min. Prior to each 3-min bioassay period, the hand of the untreated arm was inserted into the cage to ascertain that it received 10 bites within 30 sec as an indication of “biting pressure”.
(§2) The bioassay was terminated when the treated arm received ≧2 bites in one 3-min bioassay period or one bite in each of two consecutive bioassay periods. The time elapsed from experiment initiation to first bite was recorded as deterrent failure or complete protection time.
(§3) N,N-diethyl-m-toluamide formulated in ethanol at a corresponding dose served as a positive control, and mineral oil by itself served as a negative control. On each day, only one candidate compound was tested, ensuring that any residual material in the chamber had disappeared before the next bioassay.
To determine the repellence and deterrence of 8-allylsulfanyloctan-1-ol against Aedes aegypti, a 5%, 10% or 25% formulation of 8-allylsulfanyloctan-1-ol in mineral oil was applied in Experiments 1-3 at a dose of 1.5 mg (total composition) per cm^2 to the skin of the test person, and was bioassayed according to the protocol described under EXAMPLE 2. In Experiment 4, mineral oil by itself served as a negative control and was bioassayed at the same dose (1.5 mg per cm^2) as in Experiments 1-3. Each of Experiments 1-4 was replicated four times.
To compare the repellence and deterrence against Aedes aegypti caused by 8-allylsulfanyloctan-1-ol as a single active ingredient and by 8-allylsulfanyloctan-1-ol in combination with vanillin as a second active ingredient, we tested a 6.7% emulsion of vanillin (Experiment 14), a 6.7% emulsion of 8-allylsulfanyloctan-1-ol (Experiment 15), and a 13.4% emulsion of 8-allylsulfanyloctan-1-ol plus vanillin (1:1 ratio) (Experiment 16). 8-Allylsulfanyloctan-1-ol and vanillin were formulated in Emulsion No. 1 (see EXAMPLE 9). In each of Experiments […], test stimuli were applied at a dose of 1.5 mg per cm^2 to the skin of the test person, and were bioassayed according to the protocol described under EXAMPLE 2. In Experiment 17, Emulsion No. 1 served as a positive control and was tested at the same dose (1.5 mg per cm^2) as in Experiments 14-16.
To be able to compare the repellence and deterrence caused by N,N-diethyl-m-toluamide and by 8-allylsulfanyloctan-1-ol plus vanillin in Emulsion No. 1 (EXAMPLE 9), Experiment 26 tested a 6.7% formulation of N,N-diethyl-m-toluamide in ethanol (the best formulant for DEET) for protection from bites by Aedes egypti. In each replicate, a dose of 1.5 mg per […] was applied to the skin of the test person and bioassayed according to the protocol described under EXAMPLE 2.
To be able to further compare the deterrence caused by N,N-diethyl-m-toluamide with that caused by 8-allylsulfanyloctan-1-ol plus vanillin, Experiment 27 tested a 10.4% formulation of N,N-diethyl-m-toluamide in ethanol, and Experiment 28 tested 8-allylsulfanyloctan-1-ol (10.4%) plus vanillin (7.9%) in Emulsion No. 2 (EXAMPLE 10). […]

For test [1], the system named is male or female Aedes aegypti antennae. Kind of test: Coupled gas chromatographic-electroantennographic detection (GC-EAD) of garlic oil extract. As for the experimental part:
FIG. 1 illustrates flame ionization detector (FID) and electroantennograhic detector (EAD: male or female Aedes aegypti antennae) responses to aliquots of the low boiling temperature portion of garlic oil extract. Chromatography: Hewlett Packard (HP) gas chromatograph equipped with a fused silica column (30 m×0.32 mm ID) coated with DB-5; injector and detector temperature: 250° C.; temperature program: 50° C.
Aliquots of garlic oil extracts were then subjected to coupled gas chromatographic-electroantennographic detection (GC-EAD) analysis. Fourteen components (10 shown in FIG. 1) elicited responses from female or male mosquito antennae. Some of these components were isolated by high-performance liquid chromatography (HPLC) for identification by nuclear magnetic resonance spectroscopy (NMR). Other components were identified (compounds 11-14 in TABLE 2) by coupled GC-mass spectrometry and by retention index calculations. […] Four of the 10 components in FIG. 1 were tentatively identified by comparing their mass spectra and retention indices with those reported in the literature (Block et al. 1998).
(§4) Components with high molecular weight (>250 daltons) are advantageous in that they: 1) dissipate slowly from treated surfaces; 2) provide long-lasting protection against mosquitoes and 3) convey little, if any, offensive smell. The relative abundance of such components was enhanced by treating garlic oil under vacuum, thus stripping away lower-boiling components. In GC-EAD analyses of the high-boiling residue, four components elicited responses from mosquito antennae.

The next test relates to mosquitoes. Kind of test: General bioassay procedure with garlic oil, its components and fractions (mosquito species not given). In kind it is in vivo. As for the experimental part:
as §1, §2, §3
Garlic oil (Allium sativum—Mexico; Clearwater Soap Works, Box 1775 RR1, Clearwater, BC V0E 1N0, Canada) was formulated in mineral oil and tested using the general bioassay procedure described in EXAMPLE 2 at a dose of 0.1 mg per cm^2 of arm surface. It expressed repellence and deterrence for ˜30 min.
Some of the 10 components in FIG. 1 were bioassayed singly (see general bioassay procedure) and in various combinations, all of which were as deterrent to mosquitoes as garlic oil.
To determine the most deterrent component(s) in garlic oil, it was fractionated by HPLC into four fractions, each containing one or more of the EAD-active components (compounds 1-10 in FIG. 1 and 11-14 in TABLE 2). Each fraction was then bioassayed and shown to be similarly effective in repelling and deterring mosquitoes.
as §4

Where [2] appears, read: Aedes aegypti, topical, Dosage 0.1 mg/cm^2, (C-T)/C x 100 at time of failure, read-out: Percent repellence.
Where [3] appears, read: Dosage 0.1 mg/cm^2, 0 = immediate failure.

Where two headings read alike, the source gives them in different places.

For the compound `C=CCSSCCCSSCC=C` [Compound 11, 4,5,9,10-tetrathiatrideca-1,12-diene], the pest or weed control at 0.1 mg/cm2 is 85% in the test with Aedes aegypti (setting [2]) and 92% with Aedes aegypti (Aedes aegypti, topical, Dosage >0.1 mg/cm^2 (so in the source), (C-T)/C x 100 at time of failure, read-out: Percent repellence). Moreover, the Failure time is given as 0 min in the test with Aedes aegypti (setting [3]) and 67.7 min in the test on Aedes aegypti (Dosage >0.1 mg/cm^2 (so in the source)). Moreover, in test [1], the “electroantennographic (EAD) response of mosquito antennae” value is “Antennal stimulatory”. The “repellent and deterrent effect in bioassays (in words)” value in the test on mosquitoes is “strong repellent and deterrent effect”.
As to `C=CCSSCC(C)SSCC=C` (stereo not drawn) [Compound 12, 6-methyl-4,5,8,9-tetrathiadodeca-1,11-diene], the pest or weed control at 0.1 mg/cm2 with Aedes aegypti (setting [2]) came to 87%. Besides, the pest or weed control at 0.5 mg/cm2 in the test on Aedes aegypti (Aedes aegypti, topical, Dosage 0.5 mg/cm^2, (C-T)/C x 100 at time of failure, read-out: Percent repellence) stood at 97%. Moreover, the figures for the Failure time in the test on Aedes aegypti (setting [3]) and in the test with Aedes aegypti (Dosage 0.5 mg/cm^2) were 0 min and 102 min, respectively. In test [1], the “electroantennographic (EAD) response of mosquito antennae” value is “Antennal stimulatory”. Also, in the test on mosquitoes, the “repellent and deterrent effect in bioassays (in words)” value was “strong repellent and deterrent effect”.

Values taken from US8889731B2, “Compounds, compositions and methods for repelling blood-feeding arthropods and deterring their landing and feeding” (Contech Enterprises Inc., priority 2007, dated 2014).
